Measured values published in patent US20110201550A1, “COMBINATION OF AMIDINE DERIVATIVES WITH CYCLIC DEPSIPEPTIDES” (Bayer Animal Health GMBH, priority 2008, published 2011).

Test system: Nippostrongylus brasiliensis
Assay: In-vitro experiments with adult Nippostrongylus brasiliensis: acetylcholine esterase activity in the incubation medium
Type: cell-based
Parameters: key: 0=no activity (<50% enzyme inhibition); 1=weak activity; 2=good activity; 3=full activity
Method: Test Method for In-Vitro Experiments with Nippostrongylus brasiliensis
Adult Nippostrongylus brasiliensis were isolated from the small intestine of female Wistar rats and transferred into 0.9% NaCl containing 20 μg/ml sisomycin and 2 μg/ml Canesten. The groups of worms (both sexes) were incubated in 1.0 ml of medium, which was also used for determining the acetylcholine esterase activity. The incubation and the enzyme assay were described in the paper by Rapson et al. (1987) Z. Parasitenkunde 73, 190-191. […] The controls only contained DMSO. The acetylcholine esterase activity in the incubation medium was determined in accordance with the above publication.
The efficacy was categorized by means of a scale 0-3, where 0=no activity (<50% enzyme inhibition); 1=weak activity; 2=good activity; 3=full activity

Compound: CC(C)CC1C(=O)OC(Cc2ccccc2)C(=O)N(C)C(CC(C)C)C(=O)OC(C)C(=O)N(C)C(CC(C)C)C(=O)OC(Cc2ccccc2)C(=O)N(C)C(CC(C)C)C(=O)OC(C)C(=O)N1C (stereo not drawn) [PF1022A]
- efficacy (scale 0-3, acetylcholine esterase inhibition) (PF1022A 0.01 ppm alone (Amidantel 0 ppm)): 1
- efficacy (scale 0-3, acetylcholine esterase inhibition) (PF1022A 0.01 ppm alone (Bay d 9216 0 ppm)): 1
- efficacy (scale 0-3, acetylcholine esterase inhibition) (PF1022A 0.05 ppm alone (Amidantel 0 ppm)): 1
- efficacy (scale 0-3, acetylcholine esterase inhibition) (PF1022A 0.05 ppm alone (Bay d 9216 0 ppm)): 1
- efficacy (scale 0-3, acetylcholine esterase inhibition) (PF1022A 0.1 ppm alone (Amidantel 0 ppm)): 2
- efficacy (scale 0-3, acetylcholine esterase inhibition) (PF1022A 0.1 ppm alone (Bay d 9216 0 ppm)): 2

Compound: C/C(=N\c1ccc(N)cc1)N(C)C [Bay d 9216]
- efficacy (scale 0-3, acetylcholine esterase inhibition) (Bay d 9216 1 ppm alone (PF1022A 0 ppm)): 1
- efficacy (scale 0-3, acetylcholine esterase inhibition) (Bay d 9216 5 ppm alone (PF1022A 0 ppm)): 1
- efficacy (scale 0-3, acetylcholine esterase inhibition) (Bay d 9216 10 ppm alone (PF1022A 0 ppm)): 1

Compound: COCC(=O)Nc1ccc(/N=C(\C)N(C)C)cc1 [Amidantel, amidantel]
- efficacy (scale 0-3, acetylcholine esterase inhibition) (Amidantel 10 ppm alone (PF1022A 0 ppm)): 1
- efficacy (scale 0-3, acetylcholine esterase inhibition) (Amidantel 50 ppm alone (PF1022A 0 ppm)): 1
- efficacy (scale 0-3, acetylcholine esterase inhibition) (Amidantel 100 ppm alone (PF1022A 0 ppm)): 1
